# Structures can show the parent of a compound that is named as a salt. Where two headings read alike, the source gives them in different places.
# Key:
# [1] = target: DNAse I; assay: DNAse I inhibitor assay based on NIR emission of 4/QIII ensemble; format: biochemical; conditions: [4]=4 μM, [QIII]=8 μM, [DNAse I]=4 U/ml, NIR emission at 785 nm; read-out: IC50 (DNAse I inhibition)
# Protocol: General Procedure for Multiwell DNAse I Assay. A reaction mixture (total volume of 100 μL) containing 4 (4 μM) and QIII (8 μM) was prepared in 9:1 Tris buffer (10 mM Tris-HCl, 0.25 mM MgCl2, 0.1 mM CaCl2, pH 7.5):DMSO. Tris buffer was prepared using nuclease-free water. The reaction mixtures were prepared in white 96-well plates (Costar, Corning, NY) and incubated at room temperature for 2 min. Varying concentrations of DNAse I prepared in Tris buffer (10 mM Tris-HCl, 0.25 mM MgCl2, 0.1 mM CaCl2, pH 7.5) were added to the reaction mixture and incubated at room temperature for 10 min. Fluorescence spectra were obtained using Agilent Cary Eclipse fluorescence spectrophotometer, λex=445 nm. NIR emission intensity at 785 nm was detected.
# Determination of IC50 Values of DNAse I Inhibitors. DNAse I assay was performed as previously described in the presence of DNAse I (4 U) and various concentrations of the inhibitor. Stock solutions of the inhibitors were prepared in Tris buffer (10 mM Tris-HCl, pH 7.5). The IC50 values were calculated by plotting log[inhibitor] versus NIR emission intensity of 4. The dose-response curves were analyzed by nonlinear regression using GraphPad Prism 8.0 (GraphPad Software, Inc., La Jolla, CA, USA).
# [2] = target: DNAse I; conditions: previously reported values (Jang et al., J. Biomol. Screen. 2015); cited from earlier work
IC50 [1],SMILES,IC50 [2]
2.29 µM,"N=C(N)NNc1ccc(NNC(=N)N)cc1 [JR-132, 1,4-phenylene-bis-aminoguanidine hydrochloride]",2.73 µM
20.7 µM,[Cl-].[Cl-].[Zn+2] [ZnCl2],18 µM

SMILES,IC50 [1],IC50 [2]
O=C(O)CN(CCN(CC(=O)O)CC(=O)O)CC(=O)O [EDTA],202 µM,190 µM
